Counter-ions that a name gives are not always drawn.
Biological target: PAI-1 (Homo sapiens, UniProt P05121)
Experiment: biochemical
Type: biochemical
Details: for IC50: PAI chromogenic substrate assay
Method: The present compounds have been tested in a PAI functional assay. In this assay, a compound is incubated with PAI-1 prior to addition to the tPA assay system. Inhibition of PAI-1 results in the production of plasmin from plasminogen. In turn, plasmin cleaves the chromogenic substrate S2251 (Kabi Vitrum) producing pNA (p-nitroaniline) which is detected spectrophotometrically at 405 nm (K. Nilsson et al, Fibrinolysis (1987) 1, 163-168).
The present compounds were tested in a PAI chromogenic substrate assay. In the assay (K. Nilsson, Fibrinolysis (1987) 1, 163-168) each compound was incubated with PAI-1 prior to addition to the tPA assay system. […] In turn, the plasmin cleaved the chromogenic substrate S2251 (Kabi-Vitrum) producing pNA (p-nitroaniline) which was detected spectrophotometrically at 405 nm.
The degrees of inhibition observed in the chromogenic substrate assay at various concentrations, or the IC50 values, for each compound are presented in Table 1.

PAI-1, sequence (P05121 24-402): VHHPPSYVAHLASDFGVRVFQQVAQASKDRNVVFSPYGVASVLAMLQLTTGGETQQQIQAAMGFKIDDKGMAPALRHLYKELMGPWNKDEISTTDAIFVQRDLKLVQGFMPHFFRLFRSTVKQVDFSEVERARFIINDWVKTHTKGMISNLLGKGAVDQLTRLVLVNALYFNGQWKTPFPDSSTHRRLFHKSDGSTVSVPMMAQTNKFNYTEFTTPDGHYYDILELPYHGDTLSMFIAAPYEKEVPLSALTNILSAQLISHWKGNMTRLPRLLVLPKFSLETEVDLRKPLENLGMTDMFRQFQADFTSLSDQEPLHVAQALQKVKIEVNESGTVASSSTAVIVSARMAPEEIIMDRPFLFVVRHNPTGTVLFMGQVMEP

Row | % Inhibition (5 μm) [%] | % Inhibition (20 μm) [%] | IC50 [µM] | SMILES
1 | 20 | 36 | – | CN(C)CCSc1ccc(/C=c2\[nH]c(=O)/c(=C/c3ccc(C(C)(C)C)cc3)[nH]c2=O)cc1 [Compound 5440.HCl, (3Z,6Z)-3-(4-(2-Dimethylaminoethylthio)benzylidene)-6-(4-tert-butylbenzylidene)-2,5-piperazinedione]
2 | 0 | 0 | – | CC(C)/C=c1\[nH]c(=O)/c(=C/c2ccc(SCCN(C)C)s2)[nH]c1=O [Compound 5448, (3Z,6Z)-3-(5-(2-Dimethylaminoethylthio)-2-thienyl)methylene-6-(2-methylpropylidene)-2,5-piperazinedione]
3 | 47 | 75 | 5.5 | CN(C)CCSc1ccc(/C=c2\[nH]c(=O)/c(=C/C3CCCCC3)[nH]c2=O)s1 [Compound 5454, (3Z,6Z)-6-Cyclohexylmethylene-3-(5-(2-dimethylaminoethylthio)-2-thienyl)methylene-2,5-piperazinedione]
4 | 25 | 69 | 5.3 | CN(C)CCSc1ccc(/C=c2\[nH]c(=O)/c(=C/C3CCCCC3)[nH]c2=O)s1 [Compound 5454.HCl, (3Z,6Z)-6-Cyclohexylmethylene-3-(5-(2-dimethylaminoethylthio)-2-thienyl)methylene-2,5-piperazinedione]
5 | 30 | 59 | 6.5 | CN(C)CCSc1ccc(/C=c2\[nH]c(=O)/c(=C/CC3CCCC(C)(C)C3)[nH]c2=O)s1 (stereo not drawn) [Compound 5455, (3Z,6Z)-3-(5-(2-Dimethylaminoethylthio)-2-thienyl)methylene-6-(2-(3,3-dimethylcyclohexyl)ethylidene)-2,5-piperazinedione]
6 | 34 | 83 | 12.2 | Cc1ccc(/C=c2\[nH]c(=O)/c(=C/c3ccc(SCCN(C)C)s3)[nH]c2=O)cc1 [Compound 5460, (3Z,6Z)-3-(5-(2-Dimethylaminoethylthio)-2-thienyl)methylene-6-(4-methylbenzylidene)-2,5-piperazinedione]
7 | 31 | 78 | 12.6 | Cc1ccc(/C=c2\[nH]c(=O)/c(=C/c3ccc(SCCN(C)C)s3)[nH]c2=O)cc1 [Compound 5460.HCl, (3Z,6Z)-3-(5-(2-Dimethylaminoethylthio)-2-thienyl)methylene-6-(4-methylbenzylidene)-2,5-piperazinedione]
8 | 1 | 44 | – | CN(C)CCSc1ccc(/C=c2\[nH]c(=O)/c(=C/c3ccc([N+](=O)[O-])cc3)[nH]c2=O)cc1 [Compound 5461, (3Z,6Z)-3-(4-(2-Dimethylaminoethylthio)benzylidene)-6-(4-nitrobenzylidene)-2,5-piperazinedione]
9 | 10 | 56 | – | CN(C)CCSc1ccc(/C=c2\[nH]c(=O)/c(=C/c3ccc([N+](=O)[O-])cc3)[nH]c2=O)cc1 [Compound 5461.HCl, (3Z,6Z)-3-(4-(2-Dimethylaminoethylthio)benzylidene)-6-(4-nitrobenzylidene)-2,5-piperazinedione]
10 | 41 | 43 | – | CN(C)CCSc1ccc(/C=c2\[nH]c(=O)/c(=C/c3ccc(C#N)cc3)[nH]c2=O)cc1 [Compound 5462, (3Z,6Z)-3-(4-Cyanobenzylidene)-6-(4-(2-dimethylaminoethylthio)benzylidene)-2,5-piperazinedione]
11 | 45 | 41 | – | CN(C)CCSc1ccc(/C=c2\[nH]c(=O)/c(=C/c3ccc(C#N)cc3)[nH]c2=O)cc1 [Compound 5462.HCl, (3Z,6Z)-3-(4-Cyanobenzylidene)-6-(4-(2-dimethylaminoethylthio)benzylidene)-2,5-piperazinedione]
12 | 76 | 78 | 4 | Cc1ccc(/C=c2\[nH]c(=O)/c(=C/c3ccc(SCCN(C)C)cc3)[nH]c2=O)cc1 [Compound 5463, (3Z,6Z)-3-(4-(2-Dimethylaminoethylthio)benzylidene)-6-(4-methylbenzylidene)-2,5-piperazinedione]

From patent publication US5750530A, “Pharmaceutical diketopiperazine compounds” (Xenova Limited, priority 1994, dated 1998)
